Laboratory results as given in ChEMBL document CHEMBL1201862, “PubChem BioAssay data set” (2004).
Active and inactive are the calls of the source.

Experiments:
[1] = tested on: H4; test: Luminescence Cell-Based Dose Response HTS to Identify Activators of 5'UTR Stem-Loop Driven Prion Protein mRNA Translation in H4 Neuroglioblastoma Cells. [Related pubchem assays: 1829 (Project Summary), 1814 (Primary HTS)]; type: functional; settings: Homo sapiens
[2] = Luminescence Cell-Based Dose Response HTS to Identify Activators of Luciferase Translation or Activity in H4 […] Cells. [Related pubchem assays: 1829 (Project Summary), 1814 (Primary HTS)]; type: functional
[3] = molecular target: Sphingosine 1-phosphate receptor 1 (Homo sapiens, UniProt P21453); test: Fluorescence-based counterscreen assay for S1P4 agonists: Cell-based dose response high throughput screening assay to identify agonists of the Sphingosine 1-Phosphate Receptor 1 (S1P1). [Related pubchem assays (depositor defined):AID1509, AID1523, AID1801, AID463107, AID463118, AID463119, AID463122, AID463123, AID463129, AID463225, AID504400, AID504460]; type: functional
[4] = Luminescence Cell-Based Dose Confirmation HTS to Identify Activators of 5'UTR Stem-Loop Driven Alpha-Synuclein mRNA Translation in H4 Neuroglioblastoma Cells. [Related pubchem assays: 1829 (Project Summary), 1814 (Primary HTS)]; type: functional
[5] = molecular target: Sphingosine 1-phosphate receptor 4 (Homo sapiens, UniProt O95977); test: Fluorescence dose response cell-based high throughput screening assay for agonists of the Sphingosine 1-Phosphate Receptor 4 (S1P4). [Related pubchem assays: 1509 (Primary screen.), 1523 (Confirmation screen in triplicates.)]; type: functional
[6] = molecular target: T1, Kappa-type opioid receptor (Homo sapiens, UniProt P41145); test: SAR analysis of small molecule agonists of the kappa opioid receptor via a luminescent beta-arrestin assay - Set 3. [Related pubchem assays (depositor defined):AID1777, AID1785, AID1786, AID1966, AID2133, AID2136, AID2284, AID2500]; type: functional
[7] = molecular target: T1, Kappa-type opioid receptor; test: KOR agonist analogs, arrestin-GFP redistribution, SAR follow-up, imaging, image-based, set 3 (AID 488833); type: functional
[8] = molecular target: T2, Delta-type opioid receptor (Homo sapiens, UniProt P41143); test: SAR Analysis of Agonists of the DOR Receptor using an Image-Based Assay - Set 3. [Related pubchem assays (depositor defined):AID1777, AID1786]; type: functional
[9] = molecular target: T3, Mu-type opioid receptor (Homo sapiens, UniProt P35372); test: SAR Analysis of Agonists of the MOR Receptor using an Image-Based Assay - Set 3. [Related pubchem assays (depositor defined):AID1777, AID1785, AID1786, AID1966, AID2133, AID2136, AID2284, AID2285, AID2352]; type: functional
[10] = molecular target: T4, Tyrosine-protein phosphatase non-receptor type 22 (Homo sapiens, UniProt Q9Y2R2); type: functional
T4 sequence (Q9Y2R2 whole entry): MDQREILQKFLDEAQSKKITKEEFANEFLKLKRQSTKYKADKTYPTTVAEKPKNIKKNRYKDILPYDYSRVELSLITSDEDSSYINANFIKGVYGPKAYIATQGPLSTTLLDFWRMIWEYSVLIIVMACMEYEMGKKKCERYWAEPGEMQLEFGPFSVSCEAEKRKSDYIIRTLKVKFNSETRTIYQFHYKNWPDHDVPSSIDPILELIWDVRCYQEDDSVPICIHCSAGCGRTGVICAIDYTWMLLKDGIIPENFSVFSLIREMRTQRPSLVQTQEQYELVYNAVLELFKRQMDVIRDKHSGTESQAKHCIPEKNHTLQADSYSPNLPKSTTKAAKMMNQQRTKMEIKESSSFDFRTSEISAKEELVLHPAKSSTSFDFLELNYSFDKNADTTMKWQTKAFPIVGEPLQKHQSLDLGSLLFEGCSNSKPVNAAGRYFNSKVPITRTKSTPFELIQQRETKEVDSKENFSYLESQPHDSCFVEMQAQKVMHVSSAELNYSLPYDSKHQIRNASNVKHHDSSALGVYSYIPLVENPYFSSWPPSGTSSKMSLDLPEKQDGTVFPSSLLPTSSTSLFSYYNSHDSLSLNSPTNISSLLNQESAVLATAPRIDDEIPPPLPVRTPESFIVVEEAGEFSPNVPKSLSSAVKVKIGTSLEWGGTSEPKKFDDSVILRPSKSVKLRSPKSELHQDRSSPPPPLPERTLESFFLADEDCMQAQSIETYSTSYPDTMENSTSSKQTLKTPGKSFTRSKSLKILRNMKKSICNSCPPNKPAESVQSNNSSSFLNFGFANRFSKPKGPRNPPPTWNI

[11] = molecular target: T5, Tyrosine-protein phosphatase non-receptor type 7 (Homo sapiens, UniProt P35236); type: functional
T5 sequence (P35236 whole entry): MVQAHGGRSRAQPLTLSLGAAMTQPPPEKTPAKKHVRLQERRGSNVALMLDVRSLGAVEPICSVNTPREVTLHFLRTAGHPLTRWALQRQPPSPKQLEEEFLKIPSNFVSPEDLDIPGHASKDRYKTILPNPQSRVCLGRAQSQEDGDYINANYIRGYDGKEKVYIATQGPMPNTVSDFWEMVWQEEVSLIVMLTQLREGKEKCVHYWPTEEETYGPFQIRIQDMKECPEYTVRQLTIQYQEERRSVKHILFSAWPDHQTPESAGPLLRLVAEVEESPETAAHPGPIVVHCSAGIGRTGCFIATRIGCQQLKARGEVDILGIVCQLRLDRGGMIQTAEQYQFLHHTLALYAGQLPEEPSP

[12] = molecular target: T4, Tyrosine-protein phosphatase non-receptor type 22; type: functional; remark: listed apart in the source
[13] = molecular target: Beta-galactosidase (Escherichia coli, UniProt Q8VNN2); type: functional
[14] = molecular target: T2, Delta-type opioid receptor; test: HTS Image-Based Screen for Antagonists of the DOR Receptor. [Related pubchem assays (depositor defined):AID1777, AID1785, AID1786, AID2133]; type: functional
[15] = molecular target: T6, Rac GTPase-activating protein 1 (Homo sapiens, UniProt Q9H0H5); test: MgcRacGAP GTPase-activating activity inhibitors, confirmation, biochemical, ADP Hunter fluorescence, primary and confirmatory (AID 624330); type: functional
T6 sequence (Q9H0H5 whole entry): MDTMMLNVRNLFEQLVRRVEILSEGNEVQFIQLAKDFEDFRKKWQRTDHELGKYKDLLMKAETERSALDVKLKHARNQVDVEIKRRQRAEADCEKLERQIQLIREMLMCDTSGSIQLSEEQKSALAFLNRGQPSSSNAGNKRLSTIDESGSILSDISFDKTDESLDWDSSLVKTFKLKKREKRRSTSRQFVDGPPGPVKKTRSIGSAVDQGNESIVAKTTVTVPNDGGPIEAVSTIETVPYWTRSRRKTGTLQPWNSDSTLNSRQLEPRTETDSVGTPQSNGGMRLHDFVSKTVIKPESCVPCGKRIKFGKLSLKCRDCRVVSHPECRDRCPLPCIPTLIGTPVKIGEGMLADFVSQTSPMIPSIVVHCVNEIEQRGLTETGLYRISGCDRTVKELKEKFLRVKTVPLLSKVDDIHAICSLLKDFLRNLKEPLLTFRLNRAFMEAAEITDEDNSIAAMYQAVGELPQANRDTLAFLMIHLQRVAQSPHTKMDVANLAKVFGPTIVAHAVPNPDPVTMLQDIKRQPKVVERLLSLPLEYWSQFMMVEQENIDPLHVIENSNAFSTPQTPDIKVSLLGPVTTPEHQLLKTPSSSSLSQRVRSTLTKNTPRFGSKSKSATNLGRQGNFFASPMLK

[16] = molecular target: T3, Mu-type opioid receptor; test: HTS Image-Based Screen for Agonists of the MOR Receptor. [Related pubchem assays (depositor defined):AID1777, AID1785, AID1786, AID2133]; type: functional
[17] = tested on: Vero; test: cells; type: functional, cell-based; settings: Chlorocebus sabaeus
[18] = molecular target: T1, Kappa-type opioid receptor; type: functional
[19] = molecular target: T2, Delta-type opioid receptor; test: HTS Image-Based Screen for Agonists of the DOR Receptor. [Related pubchem assays (depositor defined):AID1777, AID1786, AID2133]; type: functional
[20] = molecular target: T1, Kappa-type opioid receptor; type: functional; remark: listed apart in the source
[21] = tested on: Vero; test: cells; type: functional; settings: Chlorocebus sabaeus
[22] = molecular target: T7, Replicative DNA helicase DnaB (Mycobacterium tuberculosis, UniProt P9WMR3); test: DnaB Intein secondary assay Measured in Biochemical System Using Plate Reader - 2047-04_Inhibitor_Dose_DryPowder_Activity. [Related pubchem assays (depositor defined):AID2223]
T7 sequence (P9WMR3 whole entry): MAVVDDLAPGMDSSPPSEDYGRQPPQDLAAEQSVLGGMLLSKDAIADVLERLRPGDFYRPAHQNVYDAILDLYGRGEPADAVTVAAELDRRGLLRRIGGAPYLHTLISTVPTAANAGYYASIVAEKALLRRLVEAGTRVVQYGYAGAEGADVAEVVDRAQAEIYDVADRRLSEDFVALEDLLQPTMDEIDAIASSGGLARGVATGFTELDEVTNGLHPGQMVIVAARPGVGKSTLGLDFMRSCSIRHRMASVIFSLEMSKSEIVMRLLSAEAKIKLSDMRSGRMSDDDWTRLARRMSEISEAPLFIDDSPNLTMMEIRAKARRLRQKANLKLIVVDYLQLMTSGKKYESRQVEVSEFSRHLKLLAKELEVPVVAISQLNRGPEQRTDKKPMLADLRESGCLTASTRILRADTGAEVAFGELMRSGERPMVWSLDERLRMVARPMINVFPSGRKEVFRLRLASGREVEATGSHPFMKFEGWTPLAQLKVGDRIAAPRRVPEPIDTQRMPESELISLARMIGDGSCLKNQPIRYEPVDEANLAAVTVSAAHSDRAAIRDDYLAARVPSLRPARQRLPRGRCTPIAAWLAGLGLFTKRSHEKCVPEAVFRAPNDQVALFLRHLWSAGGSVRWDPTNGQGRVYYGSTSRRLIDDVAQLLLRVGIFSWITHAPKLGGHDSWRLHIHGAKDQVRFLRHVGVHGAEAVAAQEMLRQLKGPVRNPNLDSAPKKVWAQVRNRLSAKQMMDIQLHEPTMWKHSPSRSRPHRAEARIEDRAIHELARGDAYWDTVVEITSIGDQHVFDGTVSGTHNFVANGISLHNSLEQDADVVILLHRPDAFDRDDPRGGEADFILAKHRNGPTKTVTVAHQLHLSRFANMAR

[23] = GFP fluorescence signal inhibitors, dose response, artefact control, biochemical, plate reader, dry powder (AID 493243)
[24] = molecular target: T8, Protein RecA (Mycobacterium tuberculosis, UniProt P9WHJ3); test: Fluorescence Cell-Free Homogeneous Dose Retest to Identify Inhibitors of RecA-Intein Splicing Activity. [Related pubchem assays (depositor defined):AID2097, AID2223, AID489010, AID492950]; type: functional
T8 sequence (P9WHJ3 whole entry): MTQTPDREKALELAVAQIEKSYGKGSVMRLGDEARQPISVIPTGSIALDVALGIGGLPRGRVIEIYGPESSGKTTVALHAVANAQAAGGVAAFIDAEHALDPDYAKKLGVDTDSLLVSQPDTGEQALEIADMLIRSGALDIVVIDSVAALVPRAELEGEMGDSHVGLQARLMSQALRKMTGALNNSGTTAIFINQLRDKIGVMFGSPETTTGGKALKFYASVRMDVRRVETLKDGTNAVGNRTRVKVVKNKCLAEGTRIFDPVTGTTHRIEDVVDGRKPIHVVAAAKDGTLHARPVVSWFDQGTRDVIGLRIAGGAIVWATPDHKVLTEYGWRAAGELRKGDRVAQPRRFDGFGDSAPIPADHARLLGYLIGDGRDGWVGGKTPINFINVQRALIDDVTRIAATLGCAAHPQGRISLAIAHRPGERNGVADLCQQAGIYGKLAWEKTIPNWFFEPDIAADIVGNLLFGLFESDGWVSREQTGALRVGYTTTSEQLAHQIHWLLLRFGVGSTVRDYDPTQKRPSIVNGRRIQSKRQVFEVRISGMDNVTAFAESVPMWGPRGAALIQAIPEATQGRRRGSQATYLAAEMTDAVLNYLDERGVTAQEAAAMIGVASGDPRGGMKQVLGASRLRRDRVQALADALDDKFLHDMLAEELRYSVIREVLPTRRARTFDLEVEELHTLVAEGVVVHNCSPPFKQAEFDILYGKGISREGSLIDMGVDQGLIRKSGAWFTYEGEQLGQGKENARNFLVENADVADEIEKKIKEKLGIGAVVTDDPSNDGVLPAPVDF

[25] = cells; type: functional
[26] = molecular target: T7, Replicative DNA helicase DnaB; test: DnaB intein splicing inhibitors, dose response, biochemical, cell-free fluorescence (AID 449749); type: functional
[27] = molecular target: T8, Protein RecA; test: RecA Intein Measured in Biochemical System Using Plate Reader - 2047-02_Inhibitor_Dose_DryPowder_Activity. [Related pubchem assays (depositor defined):AID2223]; set-up: species or system Mycobacterium tuberculosis H37Rv

T2 sequence (P41143 whole entry): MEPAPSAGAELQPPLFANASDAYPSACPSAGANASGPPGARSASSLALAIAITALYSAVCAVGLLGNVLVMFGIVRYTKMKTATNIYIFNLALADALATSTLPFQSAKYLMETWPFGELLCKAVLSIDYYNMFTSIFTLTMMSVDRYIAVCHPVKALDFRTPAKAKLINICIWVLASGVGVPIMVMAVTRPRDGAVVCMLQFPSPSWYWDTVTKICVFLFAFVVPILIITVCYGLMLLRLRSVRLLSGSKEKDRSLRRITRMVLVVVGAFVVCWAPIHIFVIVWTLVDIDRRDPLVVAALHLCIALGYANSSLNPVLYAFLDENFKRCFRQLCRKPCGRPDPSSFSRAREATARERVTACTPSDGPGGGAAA
T1 sequence (P41145 whole entry): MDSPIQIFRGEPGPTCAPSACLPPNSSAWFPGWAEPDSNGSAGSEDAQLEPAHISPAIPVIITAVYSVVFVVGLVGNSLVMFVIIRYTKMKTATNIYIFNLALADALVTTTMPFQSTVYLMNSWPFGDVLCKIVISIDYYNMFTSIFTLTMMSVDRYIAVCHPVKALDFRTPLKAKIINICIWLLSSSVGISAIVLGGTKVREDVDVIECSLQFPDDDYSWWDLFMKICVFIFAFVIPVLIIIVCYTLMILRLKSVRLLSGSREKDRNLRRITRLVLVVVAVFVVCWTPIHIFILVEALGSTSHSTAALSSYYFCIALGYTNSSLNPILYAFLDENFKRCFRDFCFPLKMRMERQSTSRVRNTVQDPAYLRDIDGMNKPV
T3 sequence (P35372 whole entry): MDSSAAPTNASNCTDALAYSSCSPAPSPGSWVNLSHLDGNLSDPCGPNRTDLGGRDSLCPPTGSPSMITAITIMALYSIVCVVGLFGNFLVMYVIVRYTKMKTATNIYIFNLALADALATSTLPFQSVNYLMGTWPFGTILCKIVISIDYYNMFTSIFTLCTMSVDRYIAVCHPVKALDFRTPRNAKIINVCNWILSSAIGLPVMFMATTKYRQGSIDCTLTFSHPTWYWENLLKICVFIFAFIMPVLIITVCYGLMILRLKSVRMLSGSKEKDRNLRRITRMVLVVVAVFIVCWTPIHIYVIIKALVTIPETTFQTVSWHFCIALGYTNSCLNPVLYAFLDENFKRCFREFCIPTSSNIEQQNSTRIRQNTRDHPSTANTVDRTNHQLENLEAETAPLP
Chain of Beta-galactosidase (Q8VNN2 whole entry): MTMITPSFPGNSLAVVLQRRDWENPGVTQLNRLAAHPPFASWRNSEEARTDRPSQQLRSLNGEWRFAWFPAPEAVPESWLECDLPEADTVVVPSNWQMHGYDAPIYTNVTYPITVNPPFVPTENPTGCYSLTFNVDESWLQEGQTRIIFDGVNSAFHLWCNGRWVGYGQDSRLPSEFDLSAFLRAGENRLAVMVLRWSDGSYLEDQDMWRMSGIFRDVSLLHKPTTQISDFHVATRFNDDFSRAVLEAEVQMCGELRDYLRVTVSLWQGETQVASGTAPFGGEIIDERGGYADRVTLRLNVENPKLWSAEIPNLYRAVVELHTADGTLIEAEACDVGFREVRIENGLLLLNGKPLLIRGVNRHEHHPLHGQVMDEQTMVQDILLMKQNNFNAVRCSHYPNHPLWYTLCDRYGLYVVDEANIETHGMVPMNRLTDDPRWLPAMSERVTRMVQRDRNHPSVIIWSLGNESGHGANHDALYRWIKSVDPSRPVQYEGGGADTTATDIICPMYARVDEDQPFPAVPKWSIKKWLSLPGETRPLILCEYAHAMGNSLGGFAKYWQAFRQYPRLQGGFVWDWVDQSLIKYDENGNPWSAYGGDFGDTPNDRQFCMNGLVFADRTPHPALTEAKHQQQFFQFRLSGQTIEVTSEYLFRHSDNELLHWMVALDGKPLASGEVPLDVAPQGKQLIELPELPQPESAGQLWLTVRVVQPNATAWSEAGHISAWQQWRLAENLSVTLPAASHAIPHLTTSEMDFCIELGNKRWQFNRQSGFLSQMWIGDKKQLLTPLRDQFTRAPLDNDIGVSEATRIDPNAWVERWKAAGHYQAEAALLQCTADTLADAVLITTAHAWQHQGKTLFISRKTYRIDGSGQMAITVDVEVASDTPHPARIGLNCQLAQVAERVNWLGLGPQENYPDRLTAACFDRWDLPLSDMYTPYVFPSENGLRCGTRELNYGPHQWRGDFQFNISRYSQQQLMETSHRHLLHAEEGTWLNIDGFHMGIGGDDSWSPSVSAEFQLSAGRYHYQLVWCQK
Chain of Sphingosine 1-phosphate receptor 1 (P21453 whole entry): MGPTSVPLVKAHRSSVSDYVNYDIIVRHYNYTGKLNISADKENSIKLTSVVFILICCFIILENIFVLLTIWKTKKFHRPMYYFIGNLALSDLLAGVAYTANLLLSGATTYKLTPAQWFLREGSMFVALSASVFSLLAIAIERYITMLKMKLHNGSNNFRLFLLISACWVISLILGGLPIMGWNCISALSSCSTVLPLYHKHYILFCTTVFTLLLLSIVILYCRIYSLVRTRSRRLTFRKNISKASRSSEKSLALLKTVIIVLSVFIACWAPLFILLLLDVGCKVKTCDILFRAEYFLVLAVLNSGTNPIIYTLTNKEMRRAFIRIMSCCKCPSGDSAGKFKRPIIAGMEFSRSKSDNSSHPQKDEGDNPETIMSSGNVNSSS
Chain of Sphingosine 1-phosphate receptor 4 (O95977 whole entry): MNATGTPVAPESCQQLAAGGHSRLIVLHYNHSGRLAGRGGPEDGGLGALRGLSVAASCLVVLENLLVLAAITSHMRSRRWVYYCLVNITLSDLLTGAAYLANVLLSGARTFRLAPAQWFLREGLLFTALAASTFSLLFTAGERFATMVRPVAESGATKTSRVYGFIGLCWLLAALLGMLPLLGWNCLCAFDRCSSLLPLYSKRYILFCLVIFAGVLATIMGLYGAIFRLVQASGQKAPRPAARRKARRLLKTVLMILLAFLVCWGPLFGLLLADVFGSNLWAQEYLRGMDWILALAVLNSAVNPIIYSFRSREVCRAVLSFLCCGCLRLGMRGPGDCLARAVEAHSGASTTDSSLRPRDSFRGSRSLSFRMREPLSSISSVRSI

CC(=O)Oc1ccc2cc(-c3nc4ccccc4n3C)c(=O)oc2c1
inactive: EC50 [3] > 49.8 µM
active: EC50 [1] 4.66 µM | EC50 [2] 53.2 µM | EC50 [4] 94.4 µM
191 µM (not active): EC50 [5]

CC(=O)Oc1ccc(CSc2nnc(-c3ccccn3)n2Cc2cccs2)cc1
inactive: EC50 [6] > 20 µM | EC50 [7] > 32 µM | EC50 [8] > 32 µM | EC50 [9] > 32 µM

COc1ccc(C2SCC(=O)N2CCCN(C)C)cc1 (configuration not stated)
inactive: IC50 [10] > 79.4 µM | IC50 [11] > 79.4 µM | IC50 [12] > 79.4 µM

COc1cc(/C=C/c2ccc3cccc(O)c3n2)ccc1O
inactive: EC50 [13] > 31.5 µM | IC50 [14] > 32 µM | EC50 [16] > 32 µM | EC50 [19] > 32 µM
> 32 µM: IC50 [20]
active: IC50 [15] 72.4 µM | IC50 [17] > 25 µM | IC50 [18] 11.9 µM | CC50 [21] 12.4 µM

C/C(=N\NC(=O)c1ccncc1)c1cc2ccccc2oc1=O
active: AC50 [22] 36.9 µM | AC50 [23] 218 µM | EC50 [24] 2.86 µM | IC50 [25] 550 nM | AC50 [26] 2.77 µM | AC50 [27] 3.08 µM
